US11325938B2, “CD73 inhibitors” (ORIC Pharmaceuticals, Inc., priority 2018, dated 2022)

Molecular target: CD73 (Homo sapiens (Human), UniProt P21589)
Assay: Biochemical assay: inhibition of CD73 activity (AMP hydrolysis, Malachite Green readout)
Details: CD73 0.3208 nM, AMP 15 μM, 25 mM Tris-HCl pH 7.4, RT, absorbance 620 nm
Summary of the method: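 Human CD73 (320 pM final) preincubated 15 min at RT with compounds (10-point ½-log titration from 100 μM, duplicates) in 25 mM Tris-HCl pH 7.4, 5 mM MgCl2, 0.01% Brij-35, 0.01% BSA. 15 μM AMP added, 10 min at RT; released phosphate read by Malachite Green absorbance; IC50 determined.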

Chain of CD73 (P21589 27-574): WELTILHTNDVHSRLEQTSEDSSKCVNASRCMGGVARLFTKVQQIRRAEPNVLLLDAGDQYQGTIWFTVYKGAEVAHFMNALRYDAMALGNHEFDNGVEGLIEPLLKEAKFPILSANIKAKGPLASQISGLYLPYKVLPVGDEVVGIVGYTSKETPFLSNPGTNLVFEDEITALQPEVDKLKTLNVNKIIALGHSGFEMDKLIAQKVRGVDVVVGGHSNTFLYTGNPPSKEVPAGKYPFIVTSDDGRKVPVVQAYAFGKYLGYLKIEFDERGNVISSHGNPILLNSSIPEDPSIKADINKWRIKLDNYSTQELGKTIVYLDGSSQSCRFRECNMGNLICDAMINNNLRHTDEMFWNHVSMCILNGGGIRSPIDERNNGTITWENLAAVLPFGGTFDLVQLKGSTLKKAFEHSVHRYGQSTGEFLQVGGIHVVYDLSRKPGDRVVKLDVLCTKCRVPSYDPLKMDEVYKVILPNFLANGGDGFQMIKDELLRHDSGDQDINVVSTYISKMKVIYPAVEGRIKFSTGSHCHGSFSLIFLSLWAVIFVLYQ

SMILES	IC50 [nM]
COC[C@@H](OC[C@H]1O[C@@H](n2ncc3c(NC4CCCC4)nc(Cl)nc32)[C@H](O)[C@@H]1O)P(=O)(O)O [Example 64, ((S)-1-(((2R,3S,4R,5R)-5-(6-chloro-4-(cyclopentylamino)-1H-pyrazolo[3,4-d]pyrimidin-1-yl)-3,4-dihydroxytetrahydrofuran-2-yl)methoxy)-2-methoxyethyl)phosphonic acid]	≤ 100
O=P(O)(O)CS(=O)(=O)C[C@H]1O[C@@H](n2nnc3c(NC4CCCC4)cc(Cl)nc32)[C@H](O)[C@@H]1O [Example 16, (((((2S,3S,4R,5R)-5-(5-Chloro-7-(cyclopentylamino)-3H-[1,2,3]triazolo[4,5-b]pyridin-3-yl)-3,4-dihydroxytetrahydrofuran-2-yl)methyl)sulfonyl)methyl)phosphonic acid]	≤ 100
CC(CO)(OC[C@H]1O[C@@H](n2nnc3c(NC4CCCC4)nc(Cl)nc32)[C@H](O)[C@@H]1O)P(=O)(O)O (stereo partly drawn) [Example 67, (2-(((2R,3S,4R,5R)-5-(5-chloro-7-(cyclopentylamino)-3H-[1,2,3]triazolo[4,5-d]pyrimin-3-yl)-3,4-dihydroxytetrahydrofuran-2-yl)methoxy)-1-hydroxypropan-2-yl)phosphonic acid]	≤ 100
C[C@](CO)(OC[C@H]1O[C@@H](n2ncc3c(N[C@@H]4CCc5ccc(F)cc54)nc(Cl)nc32)[C@H](O)[C@@H]1O)P(=O)(O)O [Example 108, ((S)-2-(((2R,3S,4R,5R)-5-(6-chloro-4-(((R)-6-fluoro-2,3-dihydroxy-1H-inden-1-yl)amino)-1H-pyrazolo[3,4-d]pyrimidin-1-yl)-3,4-dihydroxytetrahydrofuran-2-yl)methoxy)-1-hydroxypropan-2-yl)phosphonic acid]	≤ 100
O=P(O)(O)C(CO)(CO)OC[C@H]1O[C@@H](n2ncc3c(N[C@@H]4CCCc5ccccc54)nc(Cl)nc32)[C@H](O)[C@@H]1O (racemic) [Example 189, rac-(2-(((2R,3S,4R,5R)-5-(6-chloro-4-(((R)-1,2,3,4-tetrahydronaphthalen-1-yl)amino)-1H-pyrazolo[3,4-d]pyrimidin-1-yl)-3,4-dihydroxytetrahydrofuran-2-yl)methoxy)-1,3-dihydroxypropan-2-yl)phosphonic acid]	≤ 100
O=C(O)c1ccc(C[C@](CO)(OC[C@H]2O[C@@H](n3ncc4c(NC5CCCC5)nc(Cl)nc43)[C@H](O)[C@@H]2O)P(=O)(O)O)cc1 (racemic) [Example 188, rac-4-((R)-2-(((2S,3R,4S,5S)-5-(6-chloro-4-(cyclopentylamino)-1H-pyrazolo[3,4-d]pyrimidin-1-yl)-3,4-dihydroxytetrahydrofuran-2-yl)methoxy)-3-hydroxy-2-phosphonopropyl)benzoic acid]	100 to 1000
CC#CC[C@@](CO)(OC[C@H]1O[C@@H](n2ncc3c(NC4CCCC4)nc(Cl)nc32)[C@H](O)[C@@H]1O)P(=O)(O)O [Example 97, ((R)-2-(((2R,3S,4R,5R)-5-(6-chloro-4-(cyclopentylamino)-1H-pyrazolo[3,4-d]pyrimidin-1-yl)-3,4-dihydroxytetrahydrofuran-2-yl)methoxy)-1-hydroxyhex-4-yn-2-yl)phosphonic acid]	≤ 100
Cn1nnc(CC(CO)(OC[C@H]2O[C@@H](n3ncc4c(NC5CCCC5)nc(Cl)nc43)[C@H](O)[C@@H]2O)P(=O)(O)O)n1 (stereo partly drawn) [Example 96, (2-(((2R,3S,4R,5R)-5-(6-chloro-4-(cyclopentylamino)-1H-pyrazolo[3,4-d]pyrimidin-1-yl)-3,4-dihydroxytetrahydrofuran-2-yl)methoxy)-1-hydroxy-3-(2-methyl-2H-tetrazol-5-yl)propan-2-yl)phosphonic acid]	≤ 100
CC(CO)(OC[C@H]1O[C@@H](n2ncc3c(NC4CCCC4)nc(CCCO)nc32)[C@H](O)[C@@H]1O)P(=O)(O)O (stereo partly drawn) [Example 88, 2-(((2R,3S,4R,5R)-5-(4-(Cyclopentylamino)-6-(3-hydroxypropyl)-1H-pyrazolo[3,4-d]pyrimidin-1-yl)-3,4-dihydroxytetrahydrofuran-2-yl)methoxy)-1-hydroxypropan-2-ylphosphonic acid]	≤ 100
Nc1nc(Cl)nc2c1cnn2[C@@H]1O[C@H](COC(CO)P(=O)(O)O)[C@@H](O)[C@H]1O (stereo partly drawn) [Example 59, (1-(((2R,3S,4R,5R)-5-(4-amino-6-chloro-1H-pyrazolo[3,4-d]pyrimidin-1-yl)-3,4-dihydroxytetrahydrofuran-2-yl)methoxy)-2-hydroxyethyl)phosphonic acid]	100 to 1000
CCC(OC[C@H]1O[C@@H](n2ncc3c(NC4CCCC4)nc(Cl)nc32)[C@H](O)[C@@H]1O)P(=O)(O)O (stereo partly drawn) [Example 14, (1-(((2R,3S,4R,5R)-5-(6-chloro-4-(cyclopentylamino)-1H-pyrazolo[3,4-d]pyrimidin-1-yl)-3,4-dihydroxytetrahydrofuran-2-yl)methoxy)propyl)phosphonic acid]	≤ 100
CC(CO)(OC[C@H]1O[C@@H](n2cnc3c(NC4CCCC4)nc(Cl)nc32)[C@H](O)[C@@H]1O)P(=O)(O)O (stereo partly drawn) [Example 76, (2-(((2R,3S,4R,5R)-5-(2-chloro-6-(cyclopentylamino)-9H-purin-9-yl)-3,4-dihydroxytetrahydrofuran-2-yl)methoxy)-1-hydroxypropan-2-yl)phosphonic acid]	≤ 100
O=P(O)(O)[C@@](CO)(Cc1nn[nH]n1)OC[C@H]1O[C@@H](n2ncc3c(NC4CCCC4)nc(Cl)nc32)[C@H](O)[C@@H]1O [Example 104, ((R)-2-(((2R,3S,4R,5R)-5-(6-chloro-4-(cyclopentylamino)-1H-pyrazolo[3,4-d]pyrimidin-1-yl)-3,4-dihydroxytetrahydrofuran-2-yl)methoxy)-1-hydroxy-3-(2H-tetrazol-5-yl)propan-2-yl)phosphonic acid]	≤ 100
O=P(O)(O)[C@](CO)(Cc1nn[nH]n1)OC[C@H]1O[C@@H](n2ncc3c(NC4CCCC4)nc(Cl)nc32)[C@H](O)[C@@H]1O [Example 103, ((S)-2-(((2R,3S,4R,5R)-5-(6-chloro-4-(cyclopentylamino)-1H-pyrazolo[3,4-d]pyrimidin-1-yl)-3,4-dihydroxytetrahydrofuran-2-yl)methoxy)-1-hydroxy-3-(2H-tetrazol-5-yl)propan-2-yl)phosphonic acid]	≤ 100

The next lines start with the values.

IC50 [nM]	SMILES
≤ 100	O=P(O)(O)C(CO)(COCCO)OC[C@H]1O[C@@H](n2ncc3c(NC4CCCC4)nc(Cl)nc32)[C@H](O)[C@@H]1O (mixture of isomers) [Example 172, rac-(2-(((2R,3S,4R,5R)-5-(6-chloro-4-(cyclopentylamino)-1H-pyrazolo[3,4-d]pyrimidin-1-yl)-3,4-dihydroxytetrahydrofuran-2-yl)methoxy)-1-hydroxy-3-(2-hydroxyethoxy)propan-2-yl)phosphonic acid]
≤ 100	CC(CO)(OC[C@H]1O[C@@H](n2ncc3c(N[C@H]4CC[C@@H]5CCC[C@@H]54)nc(Cl)nc32)[C@H](O)[C@@H]1O)P(=O)(O)O (stereo partly drawn) [Example 141, (2-(((2R,3S,4R,5R)-5-(6-chloro-4-(((1S,3aS,6aS)-octahydropentalen-1-yl)amino)-1H-pyrazolo[3,4-d]pyrimidin-1-yl)-3,4-dihydroxytetrahydrofuran-2-yl)methoxy)-1-hydroxypropan-2-yl)phosphonic acid]
≤ 100	CC(OC[C@H]1O[C@@H](n2ncc3c(NC4CCCC4)nc(Cl)nc32)[C@H](O)[C@@H]1O)P(=O)(O)O (stereo partly drawn) [Example 5, (1-(((2R,3S,4R,5R)-5-(6-Chloro-4-(cyclopentylamino)-1H-pyrazolo[3,4-d]pyrimidin-1-yl)-3,4-dihydroxytetrahydrofuran-2-yl)methoxy)ethyl)phosphonic acid]
≤ 100	C[C@@](CO)(OC[C@H]1O[C@@H](n2ncc3c(NC4CCCC4)nc(OCCO)nc32)[C@H](O)[C@@H]1O)P(=O)(O)O [Example 134, ((R)-2-(((2R,3S,4R,5R)-5-(4-(cyclopentylamino)-6-(2-hydroxyethoxy)-1H-pyrazolo[3,4-d]pyrimidin-1-yl)-3,4-dihydroxytetrahydrofuran-2-yl)methoxy)-1-hydroxypropan-2-yl)phosphonic acid]
≤ 100	CC(CO)(OC[C@H]1O[C@@H](n2ncc3c(NC4CCCC4)nc(C#CCO)nc32)[C@H](O)[C@@H]1O)P(=O)(O)O (stereo partly drawn) [Example 89, (2-(((2R,3S,4R,5R)-5-(4-(Cyclopentylamino)-6-(3-hydroxyprop-1-yn-1-yl)-1H-pyrazolo[3,4-d]pyrimidin-1-yl)-3,4-dihydroxytetrahydrofuran-2-yl)methoxy)-1-hydroxypropan-2-yl)phosphonic acid]
≤ 100	C[C@](CO)(OC[C@H]1O[C@@H](n2ncc3c(NC4CCC4)nc(Cl)nc32)[C@H](O)[C@@H]1O)P(=O)(O)O [Example 102, ((S)-2-(((2R,3S,4R,5R)-5-(6-chloro-4-(cyclobutylamino)-1H-pyrazolo[3,4-d]pyrimidin-1-yl)-3,4-dihydroxytetrahydrofuran-2-yl)methoxy)-1-hydroxypropan-2-yl)phosphonic acid]
≤ 100	O=P(O)(O)[C@](CO)(Cc1nn[nH]n1)OC[C@H]1O[C@@H](n2ncc3c(NC4CCCC4)nc(CO)nc32)[C@H](O)[C@@H]1O (racemic) [Example 217, rac-((R)-2-(((2S,3R,4S,5S)-5-(4-(cyclopentylamino)-6-(hydroxymethyl)-1H-pyrazolo[3,4-d]pyrimidin-1-yl)-3,4-dihydroxytetrahydrofuran-2-yl)methoxy)-1-hydroxy-3-(2H-tetrazol-5-yl)propan-2-yl)phosphonic acid]
≤ 100	C[C@H](O)COc1nc(NC2CCCC2)c2cnn([C@@H]3O[C@H](COC(CO)(CO)P(=O)(O)O)[C@@H](O)[C@H]3O)c2n1 (racemic) [Example 181, rac-(2-(((2R,3S,4R,5R)-5-(4-(cyclopentylamino)-6-((S)-2-hydroxypropoxy)-1H-pyrazolo[3,4-d]pyrimidin-1-yl)-3,4-dihydroxytetrahydrofuran-2-yl)methoxy)-1,3-dihydroxypropan-2-yl)phosphonic acid]
